Assay results from US5096929A, “2-amino-1,2,3,4-tetrahydronaphthalene derivatives with cardiovascular activity, process for their preparation and pharmaceutical compositions containing them” (Chiesi Farmaceutici S.p.A., priority 1989, dated 1992).
Where a name gives a salt, the structure may show the parent alone. Read-outs that look alike come from different tables or passages of the source. Blank lines part the entries; values can stand above or below the molecule they belong to.

What was measured:
isolated rat left atrium = assay: Isolated rat left atrium: inotropic activity (force); conditions: for EC50 / Emax: Rattus norvegicus; for EC50: read-out: EC50, left atrium (force); for Activity in isolated rat left atrium and right atrium (in words): Table I and text; for Inotropic activity of diastereoisomeric mixture (in words): rat isolated left atrium
Procedure: (§1) The inotropic and chronotropic effects of compound (Ia) of the invention were determined in vitro using, respectively, isolated rat left atrium and right atrium.
Left atrium:inotrocic activity
The atria were subjected to a 0.5 g starting tension and suspended in a bath containing aerated Krebs-Henseleit j solution with 95% O2 and […] kept at 32.C. The preparation was stimulated at a 4 Hz frequency with pulses during 5 msec each. The contraction strength was detected by an isometric transducer and recorded on a microndynamometer.
(§2) The results were expressed as the percentage of the response obtained with a maximal dose ([…]) of isoproterenol which was determined at the beginning of the test. In Table 1 the potency (EC50=effective concentration inducing the 50% of the maximal effect) and the relative intrinsic activity (expressed as α and compared with that of isoproterenol, taken=1) are shown.
(§3) The effects of the compounds were evaluated in rat isolated atria according to the previously described method.
(§4) Table 3. Potency (EC50) and intrinsic activity (α;isoproterenol=1) on the isolated rat left atrium (Inotropic activity) and right atrium (chronotropic activity).

[1] = system: isolated rat right atrium; assay: Isolated rat right atrium: chronotropic activity (frequency); conditions: Rattus norvegicus; for EC50: read-out: EC50, right atrium (frequency)
Procedure: as §1
Right atrium:chronotrpic activity
The preparation was prepared in the same way and under the same conditions as described above, but was not subjected to electric stimulation. Frequency was monitored by a cardiotachograph.
as §2, §3, §4

[2] = target: T1, beta-2 adrenergic receptors (Cavia porcellus, UniProt Q8K4Z4); assay: Isolated guinea-pig trachea: interactions with beta-2 adrenergic receptors (relaxation of carbachol contraction); conditions: for EC50: guinea-pig trachea, carbachol 3×10^-7 M
T1 construct: Trachea strips were isolated and prepared according to the method described by Emerson J and Machay D; from tissue; host or cells: guinea-pig isolated trachea strips
T1 sequence (Q8K4Z4 whole entry): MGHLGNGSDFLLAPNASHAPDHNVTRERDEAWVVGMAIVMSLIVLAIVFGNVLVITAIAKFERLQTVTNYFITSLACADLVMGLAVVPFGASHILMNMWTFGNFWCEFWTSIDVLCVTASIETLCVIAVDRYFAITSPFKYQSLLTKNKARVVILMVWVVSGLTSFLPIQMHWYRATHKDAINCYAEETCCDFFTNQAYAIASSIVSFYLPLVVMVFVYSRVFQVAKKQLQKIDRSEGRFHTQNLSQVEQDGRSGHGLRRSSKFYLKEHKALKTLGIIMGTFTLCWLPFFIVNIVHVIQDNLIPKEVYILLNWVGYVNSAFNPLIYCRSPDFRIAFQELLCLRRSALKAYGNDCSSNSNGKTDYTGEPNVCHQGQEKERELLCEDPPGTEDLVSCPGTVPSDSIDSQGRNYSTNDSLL
Procedure: The selectivity of this interaction has been studied by evaluating the effects on beta-2 adrenergic receptors, in the guinea-pig isolated trachea, using CHF 1026 as reference compound.
Isolated guinea-pig trachea: interactions with beta-2 adrenergic receptors
Trachea strips were isolated and prepared according to the method described by Emerson J and Machay D in J Pharm Pharmacol 1979, 31, 798, immersed in Krebs-Henseleit solution (37° C., 95% O2 +5% CO2), subjected to an initial tension of 1 g and contracted with carbachol (3×10^-7 M).
Dose-response curves of CHF 1255 and CHF 1026 were recorded in the absence and in the presence of 10^-6 M propranolol, used as antagonist and added to the bath before the stimulation with carbachol.
The obtained results are shown in Table 2, expressed as potency (EC50 calculated from t he dose--response curve) and intrinsic activity (α, isoproternol=1).

[3] = system: arterial rat hind quarter; assay: Rat perfused hind quarter; vasodilating action; conditions: for Emax: Rattus norvegicus; for ED40, K+ induced contraction / ED40, norepinephrine induced contraction / ED40, 5-HT induced contraction: dose decreasing contraction by 40%; for ED40, K+ induced contraction: K+ 40 mM; for ED40, 5-HT induced contraction: serotonin 5×10^-7 M
Procedure: Rat perfused hind quarter; vasodilating action
The vasodilating effect of CHF 1255 has been evaluated in the arterial rat hind quarter perfused with Krebs-Henseleit solution at constant flow.
The increase of arterial resistance was induced by K^+ -enriched solution (40 mM), norepinephrine (5×10^-6 M) and serotonin (5×10^-7 M).
Papaverine and prazosin, powerful α-blocker vasodilator, were used as reference compounds.
ED40 =dose (moles) decreasing of 40% the contraction induced by the agonist. 100% was considered as the complete recduction of contraction.

anesthetized dog = assay: Anesthetized dog: cardiovascular activity; assay type: in vivo, Beagle dog; conditions: anesthetized dog, i.v.
Procedure: The interesting hemodynamic properties of CHF 1255 were confirmed in vivo in the anesthetized dog.
Anesthesized dog: cardiovascular activity
Beagle dogs were anesthetized with sodium pentobarbital (30 mg/kg iv) thoracotomized and monitored by recording cardiocirculatory parameters.
CHF 1255 and the reference drugs (amrinone and xamoterol) were administered i.v. in a bolus.
CHF 1255 at the doses of 0.3-1.3 μmoles/kg i.v. confirmed its activity in changing hemodynamic parameters.

beta-1 = conditions: background art, cited from earlier work
[4] = Table I, isolated rat left atrium, 4 Hz stimulation, confidence limits in parentheses
[5] = Table I, isoproterenol taken=1, confidence limits in parentheses, read-out: α (intrinsic activity), left atrium (force)
[6] = Table I, isolated rat right atrium, confidence limits in parentheses
[7] = Table I, isoproterenol taken=1, confidence limits in parentheses, read-out: α (intrinsic activity), right atrium (frequency)
[8] = Table 3, inotropic activity, rat left atrium
[9] = Table 3, isoproterenol=1, read-out: α, left atrium (force)
[10] = Table 3, chronotropic activity, rat right atrium
[11] = Table 3, isoproterenol=1, read-out: α, right atrium (frequency)

EC50 (isolated rat left atrium; [4]): 900 nM
EC50 [1, 6]: 130 nM
Emax ([2]; guinea pig, isoproterenol=1, without propranolol, read-out: α in absence of propranolol): 99%
EC50 ([2]; with 10^-6 M propranolol, read-out: EC50 in presence of propranolol): 130000 nM
EC50 ([2]; without propranolol, read-out: EC50 in absence of propranolol): 230 nM
α in presence of propranolol ([2]; isoproterenol=1, with 10^-6 M propranolol): 0.94
Structure (SMILES): CC(CCc1ccc(O)cc1)NC1CCc2cc(O)c(O)cc2C1 (centres unmarked) [CHF 1026, 2-[1-(4-hydroxyphenyl)-but-3-ylamino]-6,7-dihydroxy-1,2,3,4-tetrahydronaphthalene, reference compound]
Emax (isolated rat left atrium; [5]): 81%
Emax [1, 7]: 86%
Effect of propranolol on dose-response curve ([2]; 10^-6 M propranolol): parallelely shifted to the right, showing a competitive antagonistic action

Structure (SMILES): COc1ccc2c(c1OC)CCC(NCC(O)c1ccc(O)cc1)C2 (centres unmarked) [CHF 1296]
Activity in isolated rat left atrium and right atrium (in words) (isolated rat left atrium): completely inactive

Structure (SMILES): COc1ccc2c(c1OC)CCC(NCC(O)c1cccc(O)c1)C2 (centres unmarked) [CHF 1297]
Activity in isolated rat left atrium and right atrium (in words) (isolated rat left atrium): completely inactive

Structure (SMILES): COc1ccc2c(c1OC)CCC(N[C@H](C)[C@@H](O)c1ccc(O)cc1)C2 (some centres unmarked) [CHF 1388, (αR,βS)-5,6-dimethoxy-2-[2-(4-hydroxyphenyl)-2-hydroxy-1-methylamino]-2-hydroxy-I-methylethylamino]--,2,3,4-tetrahydronaphthalene hydrochloride]
Inotropic activity of diastereoisomeric mixture (in words) (isolated rat left atrium): did not show any inotropic activity
Contribution to vasodilating activity of CHF 1255 [3]: vasodilating activity of CHF 1255 is mainly due to CHF 1388

Structure (SMILES): COc1ccc2c(c1OC)CCC(N[C@@H](C)[C@H](O)c1ccc(O)cc1)C2 (some centres unmarked) [CHF 1389, (αS, βR)-5,6-Dimethoxy-2-[2-(4-hydroxyphenyl)-2-hydroxy-1-methylethylemino]-1,2,3,4-tetrahydronaphthalene hydrochloride]
Inotropic activity of diastereoisomeric mixture (in words) (isolated rat left atrium): as effective as CHF 1255 in the rat isolated left atrium

EC50 (isolated rat left atrium; [8]): 26600 nM
EC50 [1, 10]: 155000 nM
Structure (SMILES): Nc1cc(-c2ccncc2)c[nH]c1=O [amrinone]
Emax (isolated rat left atrium; [9]): 29%
Emax [1, 11]: 147%

EC50 (isolated rat left atrium; [8]): 1190 nM
EC50 (isolated rat left atrium; [4]): 1200 nM
EC50 [1, 10]: 1890 nM
EC50 [1, 6]: 1900 nM
Structure (SMILES): NCCc1ccc(O)c(O)c1 [dopamine]
Emax (isolated rat left atrium; [9]): 95%
Emax (isolated rat left atrium; [5]): 95%
Emax [1, 11]: 106%
Emax [1, 7]: 106%

Structure (SMILES): COc1ccc(Cc2nccc3cc(OC)c(OC)cc23)cc1OC [papaverine, Papaverine]
Activity against contraction by the different agents (in words) ([3]; K+, norepinephrine, serotonin): same ED40 for the different experimental conditions
Emax ([3]; read-out: α (efficacy), 5-HT induced contraction): 90%
Emax ([3]; read-out: α (efficacy), K+ induced contraction): 90%
Emax ([3]; read-out: α (efficacy), norepinephrine induced contraction): 95%
ED40, K+ induced contraction [3]: 6.5e-08 mol
ED40, norepinephrine induced contraction ([3]; norepinephrine 5×10^-6 M): 4.5e-08 mol
ED40, 5-HT induced contraction [3]: 5e-08 mol

Structure (SMILES): COc1cc2nc(N3CCN(C(=O)c4ccco4)CC3)nc(N)c2cc1OC [prazosin]
Emax ([3]; 100% = complete reduction, norepinephrine 5×10^-6 M, read-out: α (efficacy), norepinephrine induced contraction): 96%
ED40, K+ induced contraction [3]: inactive
ED40, norepinephrine induced contraction ([3]; norepinephrine 5×10^-6 M): 1.5e-11 mol
ED40, 5-HT induced contraction [3]: inactive

Structure (SMILES): O=C(NCCNCC(O)COc1ccc(O)cc1)N1CCOCC1 (centres unmarked) [xamoterol, xamoterol fumarate]
EC50 (isolated rat left atrium): 4.98 nM
Emax (isolated rat left atrium; read-out: α, left atrium (force)): 33%
EC50 [1]: 4.71 nM
Emax ([1]; read-out: α, right atrium (frequency)): 76%
Hemodynamic effects (in words) (anesthetized dog): negligible
Agonistic action relative to isoproterenol (beta-1; % that of isoproterenol): 40%
Tolerability (in words) (beta-1; vs prenalterol): better tolerated
